Tests used:
LXRα = target: T1, LXRα (Homo sapiens, UniProt Q13133); experiment: Activation of human cells expressing nuclear receptors; type: cell-based
T1 sequence (Q13133 1-447): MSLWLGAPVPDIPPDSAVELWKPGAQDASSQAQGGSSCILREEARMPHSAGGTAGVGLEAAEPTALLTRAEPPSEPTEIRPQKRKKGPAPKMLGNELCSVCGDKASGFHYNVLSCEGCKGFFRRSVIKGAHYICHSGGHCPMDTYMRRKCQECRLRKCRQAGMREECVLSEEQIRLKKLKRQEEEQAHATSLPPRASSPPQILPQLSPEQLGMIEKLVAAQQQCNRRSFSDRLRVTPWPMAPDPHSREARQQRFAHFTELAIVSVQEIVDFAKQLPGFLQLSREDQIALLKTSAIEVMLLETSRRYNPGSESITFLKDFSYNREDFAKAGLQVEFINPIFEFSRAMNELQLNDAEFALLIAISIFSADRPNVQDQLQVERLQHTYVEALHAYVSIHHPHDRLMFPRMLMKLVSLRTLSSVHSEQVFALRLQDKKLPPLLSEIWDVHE

[1] = system: PPARδ regulated genes (CPT1b, PGC-1α); experiment: In vivo expression of PPARδ regulated genes in mice muscle
RXR = experiment: Activation of human cells expressing nuclear receptors; type: cell-based
PPARγ = target: T2, PPARγ (Homo sapiens, UniProt P37231); experiment: PPAR agonist activity in human cell lines expressing PPAR isotypes; type: cell-based
T2 sequence (P37231 1-505): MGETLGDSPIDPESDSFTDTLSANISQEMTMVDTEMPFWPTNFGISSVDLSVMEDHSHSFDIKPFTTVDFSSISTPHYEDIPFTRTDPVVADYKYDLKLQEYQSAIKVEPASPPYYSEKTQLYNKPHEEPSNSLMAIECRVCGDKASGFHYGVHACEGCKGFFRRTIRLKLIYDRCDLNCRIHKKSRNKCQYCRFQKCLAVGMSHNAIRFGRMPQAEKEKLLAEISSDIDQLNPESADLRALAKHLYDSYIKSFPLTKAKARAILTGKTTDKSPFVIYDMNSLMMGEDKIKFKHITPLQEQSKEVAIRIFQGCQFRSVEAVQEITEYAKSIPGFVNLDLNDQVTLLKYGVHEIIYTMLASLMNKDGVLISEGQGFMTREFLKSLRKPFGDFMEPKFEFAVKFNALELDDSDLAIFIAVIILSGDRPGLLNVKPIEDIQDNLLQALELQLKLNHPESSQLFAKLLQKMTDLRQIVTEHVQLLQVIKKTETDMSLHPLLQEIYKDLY
Procedure: (§1) Compound I is a PPARδ agonist that is useful in the methods of treatment described herein. In human cell lines expressing all three peroxisome proliferator-activated receptor (PPAR) isotypes, Compound I is a potent (EC50<100 nM) and selective human PPARδ agonist, with minor activity on PPARα (EC50>10 μM) and PPARγ (EC50>10 μM).

PPARα = target: T3, PPARα (Homo sapiens, UniProt Q07869); experiment: as above; type: cell-based
T3 sequence (Q07869 1-468): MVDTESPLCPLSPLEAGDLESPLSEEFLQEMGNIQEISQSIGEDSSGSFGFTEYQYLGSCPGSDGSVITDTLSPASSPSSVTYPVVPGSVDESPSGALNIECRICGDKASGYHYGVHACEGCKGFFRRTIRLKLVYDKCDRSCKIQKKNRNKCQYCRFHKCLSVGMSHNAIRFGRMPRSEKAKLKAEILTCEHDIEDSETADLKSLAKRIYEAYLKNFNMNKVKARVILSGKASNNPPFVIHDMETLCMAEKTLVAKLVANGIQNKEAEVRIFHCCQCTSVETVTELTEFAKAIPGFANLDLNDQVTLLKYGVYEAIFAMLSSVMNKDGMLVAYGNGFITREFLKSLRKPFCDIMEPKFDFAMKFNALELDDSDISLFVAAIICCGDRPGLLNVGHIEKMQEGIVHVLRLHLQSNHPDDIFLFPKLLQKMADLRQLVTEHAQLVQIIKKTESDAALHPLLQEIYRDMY
Procedure: as §1

human PPARδ = target: T4, human PPARδ (Homo sapiens, UniProt Q03181); experiment: as above; type: cell-based
T4 sequence (Q03181 1-441): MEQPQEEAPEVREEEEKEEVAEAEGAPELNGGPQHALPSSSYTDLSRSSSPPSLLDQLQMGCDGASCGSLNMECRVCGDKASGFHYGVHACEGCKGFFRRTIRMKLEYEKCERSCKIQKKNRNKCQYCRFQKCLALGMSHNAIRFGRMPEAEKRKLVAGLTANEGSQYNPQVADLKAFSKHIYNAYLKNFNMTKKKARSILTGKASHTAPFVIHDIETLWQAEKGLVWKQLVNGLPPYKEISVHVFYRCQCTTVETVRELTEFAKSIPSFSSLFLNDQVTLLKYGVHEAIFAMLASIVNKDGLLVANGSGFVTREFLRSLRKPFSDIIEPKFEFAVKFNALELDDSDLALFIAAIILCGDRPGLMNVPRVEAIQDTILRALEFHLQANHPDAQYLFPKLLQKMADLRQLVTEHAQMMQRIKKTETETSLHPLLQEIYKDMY
Procedure: as §1

[2] = system: Angiopoietin-like 4 (ANGPTL4); experiment: In vivo expression of PPAR regulated target gene in rat muscle
LXRβ = target: T5, LXRβ (Homo sapiens, UniProt P55055); experiment: Activation of human cells expressing nuclear receptors; type: cell-based
T5 sequence (P55055 1-460): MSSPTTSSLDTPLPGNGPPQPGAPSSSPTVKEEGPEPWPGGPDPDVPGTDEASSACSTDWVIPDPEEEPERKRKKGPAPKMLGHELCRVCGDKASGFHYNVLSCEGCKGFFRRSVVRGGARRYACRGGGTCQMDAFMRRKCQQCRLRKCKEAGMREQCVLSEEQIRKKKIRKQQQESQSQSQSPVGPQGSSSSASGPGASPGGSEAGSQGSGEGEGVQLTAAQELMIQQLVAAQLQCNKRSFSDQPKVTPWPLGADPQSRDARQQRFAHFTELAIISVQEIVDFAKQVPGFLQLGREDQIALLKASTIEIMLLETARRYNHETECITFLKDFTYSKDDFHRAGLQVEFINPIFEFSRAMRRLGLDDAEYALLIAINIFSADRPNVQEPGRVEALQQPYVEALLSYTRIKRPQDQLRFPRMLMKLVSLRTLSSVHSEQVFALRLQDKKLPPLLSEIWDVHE

FXR = target: T6, FXR (Homo sapiens, UniProt Q96RI1); experiment: as above; type: cell-based
T6 sequence (Q96RI1 1-486): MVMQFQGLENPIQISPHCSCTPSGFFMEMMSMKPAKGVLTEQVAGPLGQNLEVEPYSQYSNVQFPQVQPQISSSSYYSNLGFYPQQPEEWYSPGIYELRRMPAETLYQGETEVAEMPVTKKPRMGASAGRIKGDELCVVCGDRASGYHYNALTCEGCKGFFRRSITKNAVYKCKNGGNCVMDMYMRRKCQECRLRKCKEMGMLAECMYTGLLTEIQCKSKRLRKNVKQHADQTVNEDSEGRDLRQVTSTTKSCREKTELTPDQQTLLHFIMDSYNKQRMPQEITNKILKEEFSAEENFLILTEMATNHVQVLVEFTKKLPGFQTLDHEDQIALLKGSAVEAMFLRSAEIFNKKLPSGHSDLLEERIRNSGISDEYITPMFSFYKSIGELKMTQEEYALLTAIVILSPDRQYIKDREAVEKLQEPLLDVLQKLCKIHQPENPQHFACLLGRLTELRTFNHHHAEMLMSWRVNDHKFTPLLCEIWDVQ

[3] = Clinical studies, safety and tolerability; type: in vivo, human
PPARδ = target: T7, PPARδ (Mus musculus, UniProt P35396); conditions: mice, cited from earlier work
T7 construct: host or cells: mice (skeletal muscle), in vivo
T7 sequence (P35396 1-440): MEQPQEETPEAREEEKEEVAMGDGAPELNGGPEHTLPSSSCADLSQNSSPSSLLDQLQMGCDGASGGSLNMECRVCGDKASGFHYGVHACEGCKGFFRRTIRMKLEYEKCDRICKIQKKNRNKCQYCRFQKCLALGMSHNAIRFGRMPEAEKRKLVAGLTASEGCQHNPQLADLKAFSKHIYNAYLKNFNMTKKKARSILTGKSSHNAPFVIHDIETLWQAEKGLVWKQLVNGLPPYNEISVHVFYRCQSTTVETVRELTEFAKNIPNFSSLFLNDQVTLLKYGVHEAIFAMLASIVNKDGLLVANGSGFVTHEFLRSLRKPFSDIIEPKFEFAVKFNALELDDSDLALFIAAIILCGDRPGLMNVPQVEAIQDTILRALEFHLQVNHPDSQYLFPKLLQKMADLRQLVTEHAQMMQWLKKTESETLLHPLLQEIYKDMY

[4] = human cell lines expressing all three PPAR isotypes
[5] = in combination with exercise, 4 weeks

activation of human cells expressing LXRα (LXRα)	selectivity for PPARδ over PPARγ (PPARγ) [fold]	type of agonism on PPARγ (PPARγ)	EC50 (PPARγ; [4]) [µM]	selectivity for PPARδ over PPARα (PPARα) [fold]	type of agonism on PPARα (PPARα)	EC50 (PPARα; [4]) [µM]	type of agonism on PPARδ (human PPARδ)	EC50 (human PPARδ; [4]) [µM]	activation of human cells expressing LXRβ (LXRβ)	activation of human cells expressing FXR (FXR)	SMILES	expression of PPARδ regulated genes CPT1b (beta-oxidation of long chain fatty acids) and PGC-1α (mitochondrial biogenesis) [1]	activation of human cells expressing RXR (RXR)	expression of ANGPTL4 [2]	incidence of adverse events (AEs) versus placebo [3]	serious adverse events (SAEs) [3]	safety and tolerability ([3]; Compound I or a pharmaceutically acceptable salt, solvate or hydrate)	energy substrate usage (PPARδ; 8 weeks)	muscle fibers, mitochondrial biogenesis (PPARδ; [5])	physical performance (PPARδ; [5])
did not result in activation	400	only partial agonist activity	> 10	100	only partial agonist activity	> 10	full PPARδ agonist	< 0.1	did not result in activation	did not result in activation	Cc1cc(OC/C=C(/c2ccc(F)cc2)c2ccc(C#CCN3CCOCC3)cc2)ccc1OCC(=O)O [Compound I, (E)-2-(4-((3-(4-fluorophenyl)-3-(4-(3-morpholinoprop-1-yn-1-yl)phenyl)allyl)oxy)-2-methylphenoxy)acetic acid]	altered the expression patterns	did not result in activation	increased the expression	similar	No serious adverse events (SAEs) were reported	safe and well tolerated			
											Cc1cc(SCc2sc(-c3ccc(C(F)(F)F)cc3)nc2C)ccc1OCC(=O)O [GW1516]							clear shift in energy substrate usage from glucose to fatty acid oxidation	synergistically induced fatigue-resistant oxidative muscle fibers and mitochondrial biogenesis	enhanced physical performance
